Data published in patent US6852337B2, “Carvedilol-galenics” (Roche Diagnostics GmbH, priority 1998, dated 2005).

Experiment: In-vitro dissolution rate, USP XXII paddle method, aqueous buffer pH 4.5
Assay type: physicochemical
Text: In the case of drugs which cannot develop their action in the gastrointestinal zone itself, release from the drug form in the gastrointestinal tract and the subsequent resorption are the necessary condition for a therapeutic effect. Problems arise in this connection with those active substances which, because of their poor solubility or their low dissolution speed, attain so low a concentration in the gastrointestinal tract in the aqueous medium or because of obstructed release from the system of the other adjuvants, that the dissolution of the active substance is the step which determines the rate in connection with the resorption. […] The solubility and release rate are determined by standard methods, e.g. in accordance with the paddle method of USP XXII.
The in-vitro dissolution rates in this and the following examples were determined in accordance with USP XXII, paddle method in an aqueous buffer pH 4.5

With `OC(COc1cccc2[nH]ccc12)CN1CCC(COc2ccccc2)CC1` (centres unmarked) [Active substance A, 4-[2-hydroxy-3-[4-(phenoxymethyl)piperidino]-propoxy]-indole] the “In-vitro dissolution rate after 10 minutes” value was 31%, the “In-vitro dissolution rate after 20 minutes” value was 43% and the “In-vitro dissolution rate after 30 minutes” value was 50%. For the same molecule, the “In-vitro dissolution rate after 60 minutes” value was 58%.
With `COc1ccccc1OCCNCC(O)COc1cccc2[nH]c3ccccc3c12` (centres unmarked) [Active substance B, carvedilol] the “In-vitro dissolution rate after 10 minutes” value was 36%, the “In-vitro dissolution rate after 20 minutes” value was 46% and the “In-vitro dissolution rate after 30 minutes” value was 49%. The “In-vitro dissolution rate after 60 minutes” value was 56%.
